# Assays:
# [1] = Antioxidant activity assessed as DPPH free radical scavenging activity by measuring reducing activity at 100 uM after 20 mins by spectrophotometry; type: physicochemical; set-up: scale not given: the % may be the effect or the level left
# [2] = test system: Rattus norvegicus; test: Anti-inflammatory activity in Fisher 344 rat assessed as inhibition of carrageenan-induced paw edema at 0.01 mmol/kg, ip after 3.5 hrs; type: functional; details: Fisher 344, ip
# [3] = Antioxidant activity assessed as increase of DPPH free radical scavenging activity by measuring reducing activity at 100 uM after 60 mins by spectrophotometry; type: physicochemical; details: 1 h
# [4] = Antioxidant activity assessed as inhibition of AAPH-induced linoleic acid lipid peroxidation at 100 uM; type: physicochemical
# [5] = Inhibition of soybean LOX assessed as reduction in conversion of sodium linoleate to 13-hydroperoxylinoleic acid by UV analysis; set-up: species or system Glycine max
# [6] = test system: HaCaT; test: Antiproliferative activity against human HaCaT cells after 24 hrs by MTT assay; type: functional, cell-based
# [7] = Cytotoxicity against human HaCaT cells assessed as cell survival at 0.1 uM after 48 hrs by MTT assay (reference value: 96.75 +/- 1.77%); type: cell-based; details: read-out: Survival
# [8] = Cytotoxicity against human HaCaT cells assessed as cell survival at 1 uM after 48 hrs by MTT assay (reference value: 97.50 +/- 0.71%); type: cell-based; details: read-out: Survival
# [9] = Cytotoxicity against human HaCaT cells assessed as cell survival at 100 uM after 48 hrs by MTT assay (reference value: 88.07 +/- 9.81%); type: cell-based; details: read-out: Survival
# [10] = Cytotoxicity against human HaCaT cells assessed as cell survival at 10 uM after 48 hrs by MTT assay (reference value: 95.75 +/- 2.47%); type: cell-based; details: read-out: Survival
# [11] = test system: Glycine max; test: Inhibition of soybean LOX assessed as reduction in conversion of sodium linoleate to 13-hydroperoxylinoleic acid at 100 uM by UV analysis
# [12] = test system: Rattus norvegicus; test: Acute toxicity in Fisher 344 rat up to 0.1 mmol/kg, ip; type: organism-based; details: in vivo
# [13] = Cytotoxicity against human HaCaT cells assessed as cell survival at 0.01 uM after 48 hrs by MTT assay (reference value: 100%); type: cell-based; details: read-out: Survival
# [14] = Lipophilicity, RM of the compound by RP-TLC method; type: physicochemical
# [15] = Chemical stability in DMSO assessed as compound degradation at 1 mM after 5 days by HPLC analysis; type: physicochemical; details: 120 h, 1000 µM
# [16] = Drug metabolism in DMSO assessed as formation of oxidative product danthron at 1 mM after 2 days by HPLC analysis; type: physicochemical; details: 48 h, 1000 µM
# [17] = Drug degradation in DMSO up to 48 hrs; type: physicochemical
# [18] = test system: HaCaT; test: Antiproliferative activity against human HaCaT cells; type: functional, cell-based
Structure (SMILES),Activity [1],inhibition in vivo at 10 µmol/kg [2] [%],Activity [3],inhibition (INH) [4],IC50 ([5]; read-out: IC50) [µM],IC50 [6] [µM],"viability at 48 h, 0.1 µM [7] [%]","viability at 48 h, 1 µM [8] [%]","viability at 48 h, 100 µM [9] [%]","viability at 48 h, 10 µM [10] [%]",inhibition [11] [%],Activity [12],"viability at 48 h, 0.01 µM [13] [%]",IC50 [5],Rm [14],Stability [15],Stability [16],Stability [17],IC50 [18] [µM]
NCCc1ccc(O)c(O)c1 [DOPAMINE],86%,13,Not Active,43%,100,,,,,,,,,,,,,,
CCCCCCCCCCCCNC(=O)CC1c2cccc(O)c2C(=O)c2c(O)cccc21,98%,,Not Active,74%,,0.022,37.7,14.6,1.22,7.79,32,Non-toxic,55.9,,,,,,
O=C(O)CC1c2cccc(O)c2C(=O)c2c(O)cccc21,25%,13,Active,20%,50,1.9,58,60.4,41.2,42,,Non-toxic,87.1,,,,,,
COc1ccc(CNC(=O)CC2c3cccc(O)c3C(=O)c3c(O)cccc32)c(OC)c1,87%,,Not Active,81%,50,10,134,135,0.05,8.42,,Non-toxic,92.3,,,,,,
CC(Cc1ccc(O)c(O)c1)C(C)Cc1ccc(O)c(O)c1 (stereo unspecified) [NORDIHYDROGUAIARETIC ACID],81%,,Not Active,,,,,,,,,,,,,,,,
NCCCCN(CCCN)C(=O)CC1c2cccc(O)c2C(=O)c2c(O)cccc21.O=C(O)C(F)(F)F.O=C(O)C(F)(F)F,48%,,Not Active,74%,,,,,,,26,Non-toxic,,,,,,,
NCCCNCCCCNCCCNC(=O)CC1c2cccc(O)c2C(=O)c2c(O)cccc21.O=C(O)C(F)(F)F.O=C(O)C(F)(F)F.O=C(O)C(F)(F)F,93%,,Not Active,87%,,,,,,,,Non-toxic,,Not Active,,,,,
CCOC(=O)CC1c2cccc(O)c2C(=O)c2c(O)cccc21,31%,,Active,14%,44.5,0.357,53.4,49.9,6.5,28.8,,Non-toxic,47,,0.63,,,,
NCCCCNC(=O)CC1c2cccc(O)c2C(=O)c2c(O)cccc21.O=C(O)C(F)(F)F,65%,,Not Active,91%,,,,,,,35,Non-toxic,,,0.63,,,,
COc1ccc(CNC(=O)CC2c3cccc(O)c3C(=O)c3c(O)cccc32)cc1OC,61%,,Not Active,65%,61.5,,13.3,12.3,0,3,,Non-toxic,18.5,,,,,,
O=C(CC1c2cccc(O)c2C(=O)c2c(O)cccc21)NCCc1ccc(O)c(O)c1,32%,,Not Active,5%,,100,114,112,2.98,128,42,Non-toxic,91.1,,,,,,
COc1ccc(C(NC(=O)CC2c3cccc(O)c3C(=O)c3c(O)cccc32)c2ccc(OC)cc2)cc1,86%,79.7,Active,95%,7,0.56,44,38,9.65,20.3,,Non-toxic,79.8,,0.66,Stable,Stable,,
NCCCNCCCCNCCCN [SPERMINE],4%,,Not Active,Not Active,,,,,,,,,,Not Active,,,,,
O=C1c2cccc(Cl)c2Cc2c(Cl)cccc21,,,,,,,,,,,,,,,,,,Unstable,
O=C1c2c(O)cccc2Cc2cccc(O)c21 [ANTHRALIN],31%,42,Active,28%,,0.945,87.8,48.1,1.7,5.23,,Non-toxic,94.5,Not Active,0.7,,,,0.7
CC(C)(C)OC(=O)CC1c2cccc(O)c2C(=O)c2c(O)cccc21,9%,,Active,79%,,,,,,,,Non-toxic,,Not Active,,,,,
COc1ccc2c(c1)c(CC(=O)O)c(C)n2C(=O)c1ccc(Cl)cc1 [INDOMETHACIN],,47,,,,,,,,,,,,,,,,,
CC(C)(C)OC(=O)NCCCN(CCCCN(CCCNC(=O)CC1c2cccc(O)c2C(=O)c2c(O)cccc21)C(=O)OC(C)(C)C)C(=O)OC(C)(C)C,29%,,Not Active,93%,,,,,,,,Non-toxic,,Not Active,,,,,
NCCCCNCCCN [SPERMIDINE],Not Active,,Not Active,Not Active,,,,,,,,,,Not Active,,,,,
COc1ccc(C(NC(C)=O)c2ccc(OC)cc2)cc1,Not Active,45,Not Active,94%,100,,,,,,,Non-toxic,,,,,,,
CCCCNC(=O)CC1c2cccc(O)c2C(=O)c2c(O)cccc21,31%,35,Active,59%,10,5.4,83.7,80.9,13.7,24.4,,Non-toxic,87.2,,0.05,,,,
O=C(CC1c2cccc(O)c2C(=O)c2c(O)cccc21)NCc1ccccc1,20%,35,Active,66%,7.9,,,,,,,Non-toxic,,,0.66,,,,
CC(C)(C)OC(=O)NCCCCNC(=O)CC1c2cccc(O)c2C(=O)c2c(O)cccc21,33%,,Not Active,62%,,,,,,,46,Non-toxic,,,,,,,
Cc1c(C)c2c(c(C)c1O)CCC(C)(C(=O)O)O2 (stereo unspecified) [TROLOX],,,,63%,,,,,,,,,,,,,,,

# — ChEMBL document CHEMBL3632556, “Synthesis and biological evaluation of new C-10 substituted dithranol pleiotropic hybrids” (Bioorg Med Chem, 2015)
